{
  "source": "patent US20260272895A1",
  "about": "“METHODS AND KITS FOR DELIVERY OF COMPOUNDS INTO CELLS” (Yale University, priority 2023, published 2026)",
  "key": {"Slco1a4 [1]": {"target": "T1, Slco1a4 (Mus musculus, UniProt Q9EP96)", "T1 sequence (Q9EP96 1-670)": "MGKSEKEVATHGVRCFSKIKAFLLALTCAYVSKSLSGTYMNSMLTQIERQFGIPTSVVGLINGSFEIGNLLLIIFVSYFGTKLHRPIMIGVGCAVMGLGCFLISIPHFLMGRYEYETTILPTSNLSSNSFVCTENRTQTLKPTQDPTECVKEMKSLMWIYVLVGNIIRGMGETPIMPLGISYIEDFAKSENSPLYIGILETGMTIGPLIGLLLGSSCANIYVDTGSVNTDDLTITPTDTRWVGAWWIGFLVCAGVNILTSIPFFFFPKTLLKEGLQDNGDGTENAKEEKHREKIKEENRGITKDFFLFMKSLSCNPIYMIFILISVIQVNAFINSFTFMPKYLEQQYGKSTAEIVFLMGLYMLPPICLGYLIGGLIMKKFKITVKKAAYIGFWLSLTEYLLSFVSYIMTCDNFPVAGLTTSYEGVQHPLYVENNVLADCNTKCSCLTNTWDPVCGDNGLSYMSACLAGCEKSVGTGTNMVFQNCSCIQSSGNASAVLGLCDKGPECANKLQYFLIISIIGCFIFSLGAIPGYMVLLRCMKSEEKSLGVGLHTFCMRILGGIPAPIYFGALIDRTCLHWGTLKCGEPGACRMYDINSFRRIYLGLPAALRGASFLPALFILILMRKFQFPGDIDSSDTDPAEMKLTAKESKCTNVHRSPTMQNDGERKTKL", "test": "Compound uptake in HEK293 cells transfected with Slco1a4", "assay_type": "cell-based", "set-up": "FLAG; expressed in transfected cells", "experimental": "HEK293 cells are cultured and seeded at ~60% confluency in 24-well plates and are transiently transfected with 250 ng of a candidate transporter and 1 μL transfection reagent (JetPRIME). After 2 days, cells are washed and novel fluorescent probes at different concentrations are added to the transport medium and incubated at 37° C., for at least 30 minutes. To terminate the transport, cells are washed with PBS and fixed with 4% paraformaldehyde. The colocalization of probe uptake and cells expressing the transporters is investigated by immunostaining the transporter which has a fused FLAG tag, using anti-FLAG 488. Before confocal imaging, nuclei are labeled with Hoechst 33342 and cells are mounted and imaged on a Leica SP8 confocal microscope.\nFor in vitro experiments, HEK293 cells were cultured and seeded in 24-well plates, reaching approximately 60% confluency. For transient transfection, 250 ng of a candidate transporter plasmid and 1 μL of transfection reagent (JetPRIME) were added to the cells. After a 2-day incubation period, the cells were washed, and novel fluorescent probes were introduced into the transport medium at various concentrations. The cells were then incubated at 37° C., for a minimum of 30 minutes to allow for uptake. To stop the transport process, the cells were washed with PBS and fixed using 4% paraformaldehyde. Immunostaining of the transporter, which was fused with a FLAG tag, was performed using an anti-FLAG 488 antibody. Before confocal imaging, the cell nuclei were labeled with Hoechst 33342. Finally, the cells were mounted and imaged using a Leica SP8 confocal microscope."}, "Slco1a4 [2]": {"target": "T1, Slco1a4", "test": "Uptake by cells ectopically expressing Slco1a4 (in utero electroporation) in live mice", "assay_type": "in vivo", "set-up": "FLAG; expressed in transfected cells; host or cells: cortical neurons of live mice, in utero electroporation at E14/E15", "details": "topical cortical administration (50 μM where stated)", "experimental": "IUE is performed at E14 or E15 as previously done. Briefly, timed pregnant mice are anaesthetized with ketamine/xylazine. The abdominal region is shaved, sterilized and a 3 cm midline incision is made in the skin and abdominal muscle. The uterine horns are exposed, and the lateral ventricle of each embryo is pressure injected (Picospritzer II, General Valve) with plasmid DNA (~[…] volume per embryo) at a concentration of […] followed by electroporation with tweezertrodes (50 V, 4-50 ms pulses with I s pulse interval. BTX Harvard Apparatus). The embryos are placed back in the mother womb, and the muscle and skin are sutured. Electroporated pups are aged to postnatal day 30. Imaging is performed through a craniotomy over the transfected hemisphere following dye labeling.\nBriefly, animals are anaesthetized via intraperitoneal injections of ketamine/xylazine or via inhaled isoflurane. A region of the skull (3×3 mm) is gently removed with a high-speed drill and the underlying dura is removed. A small glass coverslip is placed over the skull to allow long term optical access for in vivo imaging. […]\nOne-month-old wild-type mice were anesthetized using a ketamine/xylazine solution at doses of 100 mg/kg and 10 mg/kg, respectively. […] Mice were kept on a heating pad at 37° C., and anesthesia was periodically monitored. […]"}},
  "data": [
    {"molecule": "O=S(=O)([O-])c1cc(S(=O)(=O)O)ccc1C1=c2cc3c4c(c2Oc2cc(Br)ccc21)CCC[N+]=4CCC3", "note": "[Compound 1, 2-(12-bromo-1,2,3,5,6,7-hexahydrochromeno[2,3-f]pyrido[3,2,1-ij]quinolin-4-ium-9-yl)-5-sulfobenzenesulfonate]", "values": [
      {"measurement": "uptake in Slco1a4 transfected HEK293 cells", "setting": "Slco1a4 [1]; concentration not given", "value": "only those cells expressing SLCO1A4 (as evidenced by anti-FLAG labeling-green) take up compound 1"},
      {"measurement": "uptake by neurons ectopically expressing Slco1a4", "setting": "Slco1a4 [2]", "value": "only those cells that express SLCO1A2 or SLCO1A4 (as evidenced by the GFP fluorescence (green)) take up compound 1"}
    ]},
    {"molecule": "COc1cc2c(c(OC)c1OC)-c1ccc(OC)c(=O)cc1C(NS(=O)(=O)c1ccc(-c3c4ccc(N(C)C)cc4[o+]c4cc(N(C)C)ccc34)c(S(=O)(=O)[O-])c1)CC2", "note": "(stereo not shown) [Compound 47, 2-(3,6-bis(dimethylamino)xanthylium-9-yl)-5-(N-(1,2,3,10-tetramethoxy-9-oxo-5,6,7,9-tetrahydrobenzo[a]heptalen-7-yl)sulfamoyl)benzenesulfonate]", "values": [
      {"measurement": "uptake in Slco1a4 transfected HEK293 cells", "setting": "Slco1a4 [1]; 10 μM", "value": "robust and selective uptake"},
      {"measurement": "uptake by neurons ectopically expressing Slco1a4", "setting": "Slco1a4 [2]", "value": "marked uptake"}
    ]}
  ]
}
